Assay results reported in patent US20230117034A1, “PYRAZOLOTRIAZINES” (Bayer Aktiengesellschaft, priority 2019, published 2023).

Key:
[1] = tested on: CAL-120, human breast adenocarcinoma cells; experiment: Proliferation assay CAL-120 (crystal violet, 4 days); format: cell-based; details: Homo sapiens, CAL-120, 96 h, CAL-120 cells, median, read-out: Prolif-CAL-120, IC50-[mol/l] (median)
Experimental: Human tumour cells were originally obtained from the American Type Culture Collection (ATCC), or from the Deutsche Sammlung von Mikroorganismen und Zellkulturen (DSMZ, German Collection of Microorganisms and Cell Cultures). Cultivated tumour cells (CAL-120, human breast adenocarcinoma cells, DSMZ ACC-459; MDA-MB-231, human breast cancer cells, ATCC HTB-26) were plated at a density of 4,000 cells/well in a 96-well multititer plate in 200 microL of their respective growth medium supplemented 10% fetal calf serum. After 24 hours, the cells of one plate (zero-point plate) were stained with crystal violet (see below), while the medium of the other plates was supplemented with the test substances in various concentrations (0 micromol/L, as well as in the range of 0.01-10 micromol/L; the final concentration of the solvent dimethyl sulfoxide was adjusted to 0.1%) using a Tecan HP D300 Digital Dispenser. The cells were incubated for 4 days in the presence of test substances. Cell proliferation was determined by staining the cells with crystal violet: the cells were fixed by adding 20 microL/measuring point of an 11% glutaric aldehyde solution for 15 minutes at room temperature. After three washing cycles of the fixed cells with water, the plates were dried at room temperature. The cells were stained by adding 100 microL/measuring point of a 0.1% crystal violet solution (pH 3.0). After three washing cycles of the stained cells with water, the plates were dried at room temperature. The dye was dissolved by adding 100 microL/measuring point of a 10% acetic acid solution. The extinction was determined by photometry at a wavelength of 595 nm. The change of cell number, in percent, was calculated by normalization of the measured values to the extinction values of the zero-point plate (=0%) and the extinction of the untreated (0 μM) cells (=100%). The IC50 values (inhibitory concentration at 50% of maximal effect) were determined by means of a 4 parameter fit.

CDK12/CycK = CDK12/CycK (Homo sapiens, UniProt Q9NYV4); experiment: CDK12/CycK high ATP kinase assay (TR-FRET, 2 mM ATP); format: biochemical; details: 2 mM ATP (high ATP); median; read-out: CDK12/CyclinK, 2 mM ATP (high ATP), IC50-[mol/l] (median)
Sequence of CDK12/CycK (Q9NYV4 with tags, fused parts or gaps): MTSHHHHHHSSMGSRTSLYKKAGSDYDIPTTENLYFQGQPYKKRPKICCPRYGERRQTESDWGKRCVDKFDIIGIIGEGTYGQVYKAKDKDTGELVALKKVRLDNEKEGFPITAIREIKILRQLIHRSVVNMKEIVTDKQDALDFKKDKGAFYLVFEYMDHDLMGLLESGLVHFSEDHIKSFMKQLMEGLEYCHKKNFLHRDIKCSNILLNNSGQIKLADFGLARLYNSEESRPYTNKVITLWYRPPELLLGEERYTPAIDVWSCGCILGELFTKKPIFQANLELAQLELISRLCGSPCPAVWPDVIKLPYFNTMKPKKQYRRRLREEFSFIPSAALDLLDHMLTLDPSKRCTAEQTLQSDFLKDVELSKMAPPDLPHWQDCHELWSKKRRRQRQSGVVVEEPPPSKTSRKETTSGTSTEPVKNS
Sequence of CDK12/CycK (O75909 1-300 partner limits assumed): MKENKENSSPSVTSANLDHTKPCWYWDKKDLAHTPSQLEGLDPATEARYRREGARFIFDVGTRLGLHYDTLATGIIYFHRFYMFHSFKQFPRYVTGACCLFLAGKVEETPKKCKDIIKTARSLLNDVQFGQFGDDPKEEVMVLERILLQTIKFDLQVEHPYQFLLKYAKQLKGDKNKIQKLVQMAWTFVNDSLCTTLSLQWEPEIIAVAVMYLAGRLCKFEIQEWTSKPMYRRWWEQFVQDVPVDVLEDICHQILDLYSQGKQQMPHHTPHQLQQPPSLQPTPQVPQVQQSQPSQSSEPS
Experimental: In the context of the present invention, the term “IC50 CDK12 hATP” refers to the IC50 values obtained according to the assay described in this section (2.2) herein below, i.e. the IC50 values for the inhibition of CDK12 at high (2 mM) ATP.
CDK12/CycK-inhibitory activity of compounds of the present invention at 2 millimol/L adenosine-tri-phosphate (ATP) was quantified employing the TR-FRET (TR-FRET=Time Resolved Fluorescence Energy Transfer) based CDK12/CycK activity inhibition assay as described in the following paragraphs.
A complex of human recombinant CDK12 and human recombinant CycK (both N-terminally His-tagged, expression and purification as described above) was used as enzyme. As substrate for the kinase reaction biotinylated peptide biotin-Ahx-KFELLPTPPLSPSRRSGL (C-terminus in amid form) was used which can be purchased e.g. form the company Biosyntan (Berlin-Buch, Germany).
For the assay 50 nanoL of a 100 fold concentrated solution of the test compound in DMSO was pipetted into either a black low volume 384 well microtiter plate or a black 1536 well microtiter plate (both Greiner Bio-One, Frickenhausen, Germany), 2 microL of a solution of CDK12/CycK in aqueous assay buffer [25 millimol/L HEPES pH 7.5, 20 millimol/L MgCl2, 5 millimol/L β-glycerophosphate, 2 millimol/L EGTA, 1.0 millimol/L dithiothreitol, 0.01% (v/v) Nonidet-P40 (Sigma), 0.01% (w/v) bovine serum albumin] were added and the mixture was incubated for 15 min at 22° C. to allow pre-binding of the test compounds to the enzyme before the start of the kinase reaction. Then the kinase reaction was started by the addition of 3 microL of a solution ATP (3.33 millimol/L=>final conc. in the 5 microL assay volume is 2 millimol/L) and substrate (1.67 micromol/L=>final conc. in the 5 microL assay volume is 1 micromol/L) in assay buffer and the resulting mixture was incubated for a reaction time of 60 min at 22° C. The concentration of CDK12/CycK was adjusted depending of the activity of the enzyme lot and was chosen appropriate to have the assay in the linear range, typical concentrations were about 0.75 nanomol/L. The reaction was stopped by the addition of 3 microL of a solution of TR-FRET detection reagents (125 nanomol/L streptavidine-XL665 [Cisbio Bioassays, Codolet, France] and 0.67 nanomol/L anti-Phospho-c-Myc (Ser 62) (E1J4K)-antibody from Cell Signalling [#13748] and 2 nanomol/L LANCE EU-W1024 labeled anti-rabbit IgG antibody [Perkin-Elmer, product no. 0083]) in an aqueous EDTA-solution (133 millimol/L EDTA, 0.27% (w/v) bovine serum albumin in 66.7 millimol/L HEPES pH 7.5).
The resulting mixture was incubated 1 h at 22° C. to allow the formation of complex between the phosphorylated biotinylated peptide and the detection reagents. Subsequently the amount of phosphorylated substrate was evaluated by measurement of the resonance energy transfer from the Eu-chelate to the streptavidine-XL. Therefore, the fluorescence emissions at 620 nm and 665 nm after excitation at 350 nm was measured in a TR-FRET reader, e.g. a Pherastar FS (BMG Labtechnologies, Offenburg, Germany) or a Viewlux (Perkin-Elmer). The ratio of the emissions at 665 nm and at […] was taken as the measure for the amount of phosphorylated substrate. The data were normalised (enzyme reaction without inhibitor=0% inhibition, all other assay components but no enzyme=100% inhibition).

[2] = target: T1, CDK12 (nuclear staining in CAL-120 cells) (Homo sapiens, UniProt Q9NYV4); experiment: CDK12 nuclear protein level: immunofluorescence/high content analysis (CAL-120); format: cell-based; details: for DC50: CAL-120 cells, 24 h, immunofluorescence, 50% reduction of nuclear CDK12 staining intensity, median, read-out: CDK12 degradation IF, DC50- [mol/l] (median); for (IC50 CDK12 high ATP) to (Degradation DC50 CDK12) ratio: ratio of IC50 CDK12 high ATP kinase assay to DC50 CDK12 degradation (IF, CAL-120)
T1 construct: endogenous in cells; host or cells: CAL-120 human breast cancer cells (DSMZ ACC 459)
T1 sequence (Q9NYV4 whole entry): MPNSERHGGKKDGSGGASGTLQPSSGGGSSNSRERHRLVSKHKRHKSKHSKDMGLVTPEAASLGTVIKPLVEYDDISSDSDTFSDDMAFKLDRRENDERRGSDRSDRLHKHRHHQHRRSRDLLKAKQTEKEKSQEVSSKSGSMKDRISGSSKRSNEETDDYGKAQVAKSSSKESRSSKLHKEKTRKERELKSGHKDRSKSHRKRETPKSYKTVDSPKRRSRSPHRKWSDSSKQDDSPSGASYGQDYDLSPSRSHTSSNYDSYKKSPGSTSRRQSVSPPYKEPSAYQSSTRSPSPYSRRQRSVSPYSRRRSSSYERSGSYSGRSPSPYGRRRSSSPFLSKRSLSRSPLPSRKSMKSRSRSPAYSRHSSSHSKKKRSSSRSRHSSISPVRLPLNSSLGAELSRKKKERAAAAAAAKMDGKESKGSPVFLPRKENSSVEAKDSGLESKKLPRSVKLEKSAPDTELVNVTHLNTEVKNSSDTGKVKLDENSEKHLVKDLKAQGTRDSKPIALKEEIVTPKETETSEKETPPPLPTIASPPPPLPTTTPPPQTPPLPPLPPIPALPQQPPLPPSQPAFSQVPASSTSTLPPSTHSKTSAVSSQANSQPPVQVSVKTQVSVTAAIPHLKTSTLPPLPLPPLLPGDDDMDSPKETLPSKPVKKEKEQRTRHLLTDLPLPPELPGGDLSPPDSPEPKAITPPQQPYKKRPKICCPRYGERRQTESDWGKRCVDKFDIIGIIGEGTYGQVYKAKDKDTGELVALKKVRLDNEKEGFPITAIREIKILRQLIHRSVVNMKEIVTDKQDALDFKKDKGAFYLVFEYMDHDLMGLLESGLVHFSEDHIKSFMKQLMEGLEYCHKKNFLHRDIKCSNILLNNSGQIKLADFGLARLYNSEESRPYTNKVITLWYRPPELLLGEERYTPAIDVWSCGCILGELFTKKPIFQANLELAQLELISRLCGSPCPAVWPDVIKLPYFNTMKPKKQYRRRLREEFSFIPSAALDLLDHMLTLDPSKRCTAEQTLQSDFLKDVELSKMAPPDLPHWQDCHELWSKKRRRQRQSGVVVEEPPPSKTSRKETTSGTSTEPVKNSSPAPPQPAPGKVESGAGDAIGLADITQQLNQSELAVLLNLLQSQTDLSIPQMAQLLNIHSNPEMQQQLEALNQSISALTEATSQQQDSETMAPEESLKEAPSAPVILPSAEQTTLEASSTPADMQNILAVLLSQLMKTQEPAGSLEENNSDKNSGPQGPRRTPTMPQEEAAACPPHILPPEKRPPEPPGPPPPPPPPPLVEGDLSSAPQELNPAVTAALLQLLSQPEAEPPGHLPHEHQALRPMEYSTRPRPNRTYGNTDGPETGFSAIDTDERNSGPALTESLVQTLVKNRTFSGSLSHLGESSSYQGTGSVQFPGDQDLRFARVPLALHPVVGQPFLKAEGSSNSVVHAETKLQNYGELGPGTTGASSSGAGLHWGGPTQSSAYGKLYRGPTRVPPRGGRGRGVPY
T1 sequence (O75909 whole entry partner): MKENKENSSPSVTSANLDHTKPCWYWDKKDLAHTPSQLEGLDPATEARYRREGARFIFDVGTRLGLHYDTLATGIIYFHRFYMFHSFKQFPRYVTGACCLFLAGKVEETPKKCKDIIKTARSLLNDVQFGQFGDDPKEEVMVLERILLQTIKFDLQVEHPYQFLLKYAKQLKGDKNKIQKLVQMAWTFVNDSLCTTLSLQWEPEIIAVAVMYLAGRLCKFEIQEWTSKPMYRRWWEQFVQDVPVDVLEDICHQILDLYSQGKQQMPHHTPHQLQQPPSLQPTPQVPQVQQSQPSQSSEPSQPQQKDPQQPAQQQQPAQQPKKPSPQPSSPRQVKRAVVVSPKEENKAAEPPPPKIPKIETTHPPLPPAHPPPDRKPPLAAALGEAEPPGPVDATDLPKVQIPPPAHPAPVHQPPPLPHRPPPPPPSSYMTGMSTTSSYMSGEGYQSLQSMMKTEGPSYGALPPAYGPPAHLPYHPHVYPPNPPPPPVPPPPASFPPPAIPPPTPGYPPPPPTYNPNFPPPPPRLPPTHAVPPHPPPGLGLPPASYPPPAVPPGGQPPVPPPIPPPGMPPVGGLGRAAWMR
Experimental: In the context of the present invention, the term “DC50 CDK12” refers to the DC50 values obtained according to the assay described in this section (7) herein below, i.e. the DC50 values for the degradation of CDK12.
Plates are then incubated for 24 h at 37° C. in an humidified incubator and fixed with 4% PFA for 10 min. […] Nuclear and cytoplasmic intensity as well as the nuclear/cytoplasmic intensity ratio is determined by automated image analysis using custom generated scripts (MetaXpress). Data is then transferred to Genedata Screener software, normalized to DMSO and control and DC50 values (degrading concentration to achieve 50% reduction of nuclear CDK12 staining intensity relative to controls) are reported.

Row | Structure (SMILES) | IC50 [1] | IC50 (CDK12/CycK) | DC50 [2] | (IC50 CDK12 high ATP) to (Degradation DC50 CDK12) ratio [2]
1 | Brc1cnn2c(NCc3nnc(-c4ccccc4)[nH]3)nc(N3C[C@H]4C[C@@H]3CO4)nc12 [Example 118, 8-bromo-2-[(1R,4R)-2-oxa-5-azabicyclo[2.2.1]heptan-5-yl]-N-[(5-phenyl-4H-1,2,4-triazol-3-yl)methyl]pyrazolo[1,5-a][1,3,5]triazin-4-amine] | 29.7 nM | 5700 nM | 4.85 nM | 1176
2 | Fc1cccc(-c2nnc(CNc3nc(N4C[C@H]5C[C@@H]4CO5)nc4c(Br)cnn34)[nH]2)c1 [Example 153, 8-bromo-N-{[5-(3-fluorophenyl)-4H-1,2,4-triazol-3-yl]methyl}-2-[(1R,4R)-2-oxa-5-azabicyclo[2.2.1]heptan-5-yl]pyrazolo[1,5-a][1,3,5]triazin-4-amine] | 5.78 nM | 2950 nM | 2.58 nM | 1143
3 | C[C@H]1CN(c2nc(NCc3nc4ccccc4[nH]3)n3ncc(Br)c3n2)CCN1C [Example 132, N-[(1H-benzimidazol-2-yl)methyl]-8-bromo-2-[(3S)-3,4-dimethylpiperazin-1-yl]pyrazolo[1,5-a][1,3,5]triazin-4-amine] | 43.4 nM | > 19200 nM | 0.922 nM | >20812
4 | CN1CCN(c2nc(NCc3nc4cc(F)ccc4[nH]3)n3ncc(Br)c3n2)CC1 [Example 134, 8-bromo-N-[(5-fluoro-1H-benzimidazol-2-yl)methyl]-2-(4-methylpiperazin-1-yl)pyrazolo[1,5-a][1,3,5]triazin-4-amine] | 11.6 nM | > 17700 nM | 0.991 nM | >17850
5 | COc1ccc2[nH]c(CNc3nc(N4C[C@@H](C)O[C@@H](C)C4)nc4c(Br)cnn34)nc2c1 [Example 124, 8-bromo-2-[(2R, 6S)-2,6-dimethylmorpholin-4-yl]-N-[(5-methoxy-1H-benzimidazol-2-yl)methyl]pyrazolo[1,5-a][1,3,5]triazin-4-amine] | 6.43 nM | 489 nM | 0.768 nM | 636
6 | C[C@@H]1CN(c2nc(NCc3nnc(-c4ccccc4)[nH]3)n3ncc(Br)c3n2)C[C@H](C)N1 [Example 127, 8-bromo-2-[(3R,5S)-3,5-dimethylpiperazin-1-yl]-N-[(5-phenyl-4H-1,2,4-triazol-3-yl)methyl]pyrazolo[1,5-a][1,3,5]triazin-4-amine] | 28.2 nM | 9710 nM | 5.1 nM | 1905
7 | C[C@@H]1CN(c2nc(NCc3nc4ccccc4[nH]3)n3ncc(Br)c3n2)C[C@H](C)N1C [Example 129, N-(1H-benzimidazol-2-ylmethyl)-8-bromo-2-[(3R,5S)-3,4,5-trimethylpiperazin-1-yl]pyrazolo[1,5-a][1,3,5]triazin-4-amine] | 125 nM | > 18200 nM | 4.98 nM | >3658
8 | C[C@@H]1CN(c2nc(NCc3nc4cc(F)ccc4[nH]3)n3ncc(Br)c3n2)C[C@H](C)O1 [Example 110, 8-bromo-2-[(2R,6S)-2,6-dimethylmorpholin-4-yl]-N-[(5-fluoro-1H-benzimidazol-2-yl)methyl]pyrazolo[1,5-a][1,3,5]triazin-4-amine] | 5.03 nM | 405 nM | 1.03 nM | 394
9 | Brc1cnn2c(NCc3nc4ccccc4[nH]3)nc(N3C[C@H]4C[C@@H]3CO4)nc12 [Example 102, N-[(1H-benzimidazol-2-yl)methyl]-8-bromo-2-[(1R,4R)-2-oxa-5-azabicyclo[2.2.1]heptan-5-yl]pyrazolo[1,5-a][1,3,5]triazin-4-amine] | 27 nM | 6920 nM | 1.41 nM | 4897
10 | Fc1cc(-c2nnc(CNc3nc(N4CCOCC4)nc4c(Br)cnn34)[nH]2)cc(F)c1F [Example 100, 8-bromo-2-(morpholin-4-yl)-N-{[5-(3,4,5-trifluorophenyl)-4H-1,2,4-triazol-3-yl]methyl}pyrazolo[1,5-a][1,3,5]triazin-4-amine] | 60.2 nM | 1240 nM | 10.2 nM | 122
11 | Fc1ccc(-c2nnc(CNc3nc(N4CCOCC4)nc4c(Br)cnn34)[nH]2)cc1F [Example 99, 8-bromo-N-{[5-(3,4-difluorophenyl)-4H-1,2,4-triazol-3-yl]methyl}-2-(morpholin-4-yl)pyrazolo[1,5-a][1,3,5]triazin-4-amine] | 54.7 nM | 1540 nM | 6.7 nM | 
12 | Clc1ccc2[nH]c(CNc3nc(N4CCOCC4)nc4c(Br)cnn34)nc2c1 [Example 162, 8-bromo-N-[(5-chloro-1H-benzimidazol-2-yl)methyl]-2-(morpholin-4-yl)pyrazolo[1,5-a][1,3,5]triazin-4-amine] | 1.55 nM | 1020 nM | 0.471 nM | 2160
13 | Fc1ccccc1-c1cnn2c(NCc3nc4ccccc4[nH]3)nc(N3CCOCC3)nc12 [Example 95, N-[(1H-benzimidazol-2-yl)methyl]-8-(2-fluorophenyl)-2-(morpholin-4-yl)pyrazolo[1,5-a][1,3,5]triazin-4-amine] | 230 nM | > 20000 nM | 34.3 nM | >584
